Like-named read-outs stand apart in the source and are kept apart here.
How the values were obtained:
[1] = test system: Phytophthora capsici (ATCC 15399); experiment: In vitro test to control Phytophthora capsici (colony growth inhibition on potato dextrose agar); type: cell-based
[2] = test system: Phytophthora capsici (ATCC 15399); experiment: as above; type: cell-based; remark: listed apart in the source
Experimental: (§1) Dilution series of Compounds A and B were prepared in dimethylsulfoxide (DMSO), and aliquots added to 25 ml of molten potato dextrose agar at 50° C. to give the appropriate concentrations shown in the table below. Immediately after adding the compound(s), the molten agar was poured into 9-cm diameter petri plates and allowed to harden. The final concentration of DMSO in all plates was 0.5%. Control plates contained DMSO but neither compound. Plates were inoculated in the center with 1 μl of a suspension of Phytophthora capsici (ATCC 15399, obtainable from the American Type Culture Collection, Rockville, Md., U.S.A) zoospores containing 5×10^5 zoospores per milliliter. Three replicate plates were used for each treatment. Fungal colony diameters were measured after growth for 7 days at 25° C., and two measurements were taken from each plate. Inhibition of growth was calculated by comparing growth in the treatments with compound A and/or B with growth in the controls. Degree of inhibition (observed) is expressed as a percentage in Table 1a. The predicted % inhibition in treatments containing both A and B was calculated using the Colby Formula.
as §1, with “B′” for “B”, “(Observed)” for “(observed)”, “1b.” for “1a.”, “Formula, which is known to those skilled in the art (R. S. Colby, Weeds 15, 20-22 (1967)).” for “Formula.”

[3] = Phytophthora capsici, ATCC15399, read-out: % Inhibition (Observed)

SMILES: COCC(=O)N(c1c(C)cccc1C)C(C)C(=O)OC (racemic) [Compound B′, racemic mixture of Metalaxyl, reference compound]
- % Inhibition (Observed) ([1]; Table 1b, Compound B′ 0.6 ppm alone, 7 days at 25° C.): 35.1%
- % Inhibition (Observed) ([1]; Table 1b, Compound B′ 0.9 ppm alone, 7 days at 25° C.): 48.0%

SMILES: Cc1cccc(C)c1N(C(=O)CCl)C1CCOC1=O (stereo not shown) [Compound D, Ofurace, reference compound]
- inhibition at 12.5 ppm ([1]; Phytophthora capsici, ATCC15399, Table 3, Compound D 12.5 ppm alone, read-out: % Inhibition (Observed)): 52.1%
- inhibition at 25 ppm ([1]; Phytophthora capsici, ATCC15399, Table 3, Compound D 25 ppm alone, read-out: % Inhibition (Observed)): 56%

SMILES: COCC(=O)N(c1c(C)cccc1C)[C@H](C)C(=O)OC (single isomer, unassigned) [Compound B, R-Enantiomer of Metalaxyl, reference compound]
- % Inhibition (Observed) ([2]; Table 1a, Compound B 0.25 ppm alone, 7 days at 25° C.): 17.9%
- % Inhibition (Observed) ([2]; Table 1a, Compound B 0.75 ppm alone, 7 days at 25° C.): 57.6%
- % Inhibition (Observed) ([1]; Table 1a, Compound B 0.5 ppm alone, 7 days at 25° C.): 56.0%

SMILES: COCC(=O)N(c1c(C)cccc1C)N1CCOC1=O [Compound C, Oxadixyl, reference compound]
- inhibition at 6.25 ppm [1, 3]: 30.3%
- inhibition at 12.5 ppm [1, 3]: 41.3%
- inhibition at 25 ppm [1, 3]: 50.8%

SMILES: CCC(C)(NC(=O)c1cc(Cl)c(C)c(Cl)c1)C(=O)CCl (stereo not shown) [Compound A, N-[3′-(1′-chloro-3′-methyl-2′-oxopentan)]-3,5-dichloro-4-methylbenzamide]
- % Inhibition (Observed) ([2]; Table 1b, Compound A 0.04 ppm alone): 31.0%
- % Inhibition (Observed) ([2]; Table 1b, Compound A 0.08 ppm alone): 47.2%
- % Inhibition (Observed) ([2]; Table 1b, Compound A 0.16 ppm alone): 55.2%
- % Inhibition (Observed) ([1]; Table 1a, Compound A 0.1 ppm alone, 7 days at 25° C.): 29.0%
- % Inhibition (Observed) ([1]; Table 1b, Compound A 0.12 ppm alone): 52.3%
- % Inhibition (Observed) ([1]; Table 2, Compound A 0.1 ppm alone): 30.3%
- % Inhibition (Observed) ([1]; Table 2, Compound A 0.2 ppm alone): 39.3%
- % Inhibition (Observed) ([1]; Table 2, Compound A 0.3 ppm alone): 51.8%
- % Inhibition (Observed) ([1]; Table 3, Compound A 0.1 ppm alone): 29.0%
- % Inhibition (Observed) ([1]; Table 3, Compound A 0.2 ppm alone): 38.1%
- % Inhibition (Observed) ([1]; Table 3, Compound A 0.3 ppm alone): 47.4%
- % Inhibition (Observed) ([1]; Table 4, Compound A 0.1 ppm alone): 34.7%
- % Inhibition (Observed) ([1]; Table 4, Compound A 0.2 ppm alone): 44.5%
- % Inhibition (Observed) ([1]; Table 4, Compound A 0.3 ppm alone): 49.4%

SMILES: COC(=O)C(C)N(C(=O)Cc1ccccc1)c1c(C)cccc1C (stereo not shown) [Compound E, Benalaxyl, reference compound]
- inhibition at 20 ppm ([1]; Phytophthora capsici, ATCC15399, Table 4, Compound E 20 ppm alone, read-out: % Inhibition (Observed)): 46.6%

From patent publication US6353020B1, “Fungicidal compositions containing N-acetonylbenzamides” (Dow AgroSciences LLC, priority 1998, dated 2002)
